Laboratory results from paper PMC11330772, “Unveiling the kinetic versatility of aryl-alcohol oxidases with different electron acceptors” (Frontiers in Bioengineering and Biotechnology, 2024).
Where two headings read alike, the source gives them in different places.

Columns and labels:
BaAAO [1] = molecular target: T1, BaAAO (Bjerkandera adusta, UniProt A0ABF7PQ87); set-up: method as in Ferreira et al. (2023); details: alcohol substrate 4-methoxybenzyl alcohol, 50 mM phosphate, pH 6.0, 25 °C, ref Ferreira et al. (2023); cited from earlier work
T1 sequence (A0ABF7PQ87 entry or part of it): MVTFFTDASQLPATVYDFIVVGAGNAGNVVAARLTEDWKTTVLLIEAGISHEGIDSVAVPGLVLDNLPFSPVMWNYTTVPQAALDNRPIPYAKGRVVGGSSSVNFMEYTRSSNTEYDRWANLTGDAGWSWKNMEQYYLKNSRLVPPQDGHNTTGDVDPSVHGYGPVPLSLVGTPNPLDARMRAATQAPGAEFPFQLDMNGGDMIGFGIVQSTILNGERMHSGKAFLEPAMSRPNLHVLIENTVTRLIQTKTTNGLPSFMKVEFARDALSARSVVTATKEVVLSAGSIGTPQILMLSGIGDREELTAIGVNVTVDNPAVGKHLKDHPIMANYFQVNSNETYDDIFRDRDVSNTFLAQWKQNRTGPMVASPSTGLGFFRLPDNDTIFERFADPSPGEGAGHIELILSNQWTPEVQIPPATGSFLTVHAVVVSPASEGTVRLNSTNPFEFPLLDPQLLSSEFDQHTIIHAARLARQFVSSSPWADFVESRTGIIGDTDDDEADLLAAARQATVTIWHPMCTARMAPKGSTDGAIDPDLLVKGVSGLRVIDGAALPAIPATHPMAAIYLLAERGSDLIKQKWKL

PeAAO [2] = molecular target: T2, PeAAO (Pleurotus eryngii, UniProt O94219); set-up: method as in Ferreira et al. (2023); details: alcohol substrate 4-methoxybenzyl alcohol, 50 mM phosphate, pH 6.0, 25 °C, ref Ferreira et al. (2023); cited from earlier work
T2 sequence (O94219 entry or part of it): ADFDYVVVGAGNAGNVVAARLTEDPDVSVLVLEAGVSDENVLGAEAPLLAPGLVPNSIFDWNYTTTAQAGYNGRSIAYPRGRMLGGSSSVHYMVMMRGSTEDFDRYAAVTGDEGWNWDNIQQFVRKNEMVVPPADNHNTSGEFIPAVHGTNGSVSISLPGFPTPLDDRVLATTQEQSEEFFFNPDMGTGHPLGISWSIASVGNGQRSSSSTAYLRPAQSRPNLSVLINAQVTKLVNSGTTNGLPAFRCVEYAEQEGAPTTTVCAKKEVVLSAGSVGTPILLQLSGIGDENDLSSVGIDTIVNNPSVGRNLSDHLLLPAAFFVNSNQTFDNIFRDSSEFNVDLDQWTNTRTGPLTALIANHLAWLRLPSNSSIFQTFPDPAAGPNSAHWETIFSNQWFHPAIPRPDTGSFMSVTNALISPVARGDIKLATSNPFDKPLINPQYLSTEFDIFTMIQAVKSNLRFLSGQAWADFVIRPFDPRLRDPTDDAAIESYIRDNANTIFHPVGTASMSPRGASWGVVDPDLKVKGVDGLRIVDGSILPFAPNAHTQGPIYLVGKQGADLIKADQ

PeAAO [3] = molecular target: T2, PeAAO; assay: Redox state of the enzyme during turnover (stopped-flow); format: biochemical; details: BQ as electron acceptor, regardless of the alcohol substrate, anaerobic, pH 6.0, 25 °C
Method: Experiments with O2 were performed with the alcohol under air-saturated conditions, while in the case of BQ, the alcohol was mixed with saturating concentration of BQ (300 µM) under anaerobic conditions. The spectral evolution of the enzymes during redox turnover was recorded between 350 and 700 nm.

PeAAO [4] = molecular target: T2, PeAAO; assay: Steady-state bi-substrate kinetics of alcohol oxidation; format: biochemical; details: alcohol substrate 3-Cl-4-methoxybenzyl alcohol, 50 mM phosphate, pH 6.0, 25 °C
Method: (§1) Bi-substrate kinetics were analyzed by concurrently varying the concentration of the aforementioned alcohols and electron acceptors. Oxygen assays were carried out in a screw-cap cuvette where the alcohol was equilibrated with the desired concentration of O2 by bubbling with the appropriate O2/N2 gas mixture (4%, 10%, 21%, 44%, and 100% O2) for 10 min. Alcohol oxidation was initiated by the addition of the enzyme and followed at 285 nm for 4-methoxybenzaldehyde production and 295 nm in the case of 3-Cl-4-methoxybenzaldehyde (Δε285 = 16,950 M^−1cm^−1 and Δε295 = 15,000 M^−1cm^−1, respectively) ([Ferreira et al., 2005]). […]. BQ solutions were prepared immediately prior to use and protected from the light to avoid photodegradation.
(§2) The initial rates for bi-substrate kinetics were fitted to Eq. 1 or Eq. 2, which describe sequential and ping-pong kinetic mechanisms, respectively. […]

BaAAO [5] = molecular target: T1, BaAAO; assay: as above; format: biochemical; details: BaAAO, alcohol substrate 3-Cl-4-methoxybenzyl alcohol; 50 mM phosphate, pH 6.0, 25 °C
Method: as §1, §2

PeAAO [6] = molecular target: T2, PeAAO; assay: Isothermal titration calorimetry with BQ; format: binding
Method: (§3) The interaction parameters of the enzymes with BQ were determined using an Auto-ITC200 high-sensitivity microcalorimeter (MicroCal, Malvern-Panalytical) thermostatted at 25 °C. Enzyme solutions (∼6 μM for BaAAO and 15 μM for PeAAO) were titrated with BQ (∼50 µM for BaAAO and ∼100 μM for PeAAO) in 50 mM Tris/HCl, pH 7.0. Up to 19 injections of 2 µL were programmed with enough time spacing for the signal to recover the baseline. The association constant (K a), the enthalpy change (ΔH) and the apparent stoichiometry (n) were estimated through non-linear regression of the experimental data using a model for one binding site implemented in Origin (Origin 7.0, OriginLab). The dissociation constant (K d), the Gibbs energy change (ΔG), and the entropy change (–TΔS) were obtained from basic thermodynamic relationships.

BaAAO [7] = molecular target: T1, BaAAO; assay: Isothermal titration calorimetry with BQ; format: binding
Method: as §3

PeAAO [8] = molecular target: T2, PeAAO; assay: Stopped-flow oxidative half-reaction (flavin reoxidation by O2 or BQ); details: for second phase of reoxidation (k ox B→C): two-step model
BaAAO [9] = molecular target: T1, BaAAO; assay: Redox state of the enzyme during turnover (stopped-flow); format: biochemical; details: BQ as electron acceptor, both alcohols, anaerobic, pH 6.0, 25 °C

O=C1C=CC(=O)C=C1 [BQ, 1,4-benzoquinone]
k cat/K m(acceptor) (BaAAO [1]): 450000 ± 70000 M⁻¹ s⁻¹ | k cat/K m(acceptor) (PeAAO [2]): 1,025 ± 154 s^−1mM^−1 | enzyme in the oxidized state during turnover (PeAAO [3]): 85%–92% | k cat/K m(acceptor) (PeAAO [4]): 722000 ± 64000 M⁻¹ s⁻¹ | k cat/K m(acceptor) (BaAAO [5]): 353000 ± 65000 M⁻¹ s⁻¹ | Kd (PeAAO [6]): 27.1 µM | ΔH (PeAAO [6]; PeAAO, ITC, 25 °C, 50 mM Tris/HCl, pH 7.0, error ±0.4): -25.1 kcal/mol | ΔG (PeAAO [6]; PeAAO, ITC, 25 °C, 50 mM Tris/HCl, pH 7.0, from K d): -6.2 kcal/mol | –TΔS (PeAAO [6]; PeAAO, ITC, 25 °C, 50 mM Tris/HCl, pH 7.0, –TΔS = ΔG–ΔH): 18.9 kcal/mol | Kd (BaAAO [7]): 0.05 µM | K d of alcohols higher than K d of BQ (BaAAO [7]; BaAAO): ≤ 15,000 fold | ΔH (BaAAO [7]; BaAAO, ITC, 25 °C, 50 mM Tris/HCl, pH 7.0, error ±0.4): -21.4 kcal/mol | ΔG (BaAAO [7]; BaAAO, ITC, 25 °C, 50 mM Tris/HCl, pH 7.0, from K d): -9.9 kcal/mol | –TΔS (BaAAO [7]; BaAAO, ITC, 25 °C, 50 mM Tris/HCl, pH 7.0, –TΔS = ΔG–ΔH): 11.5 kcal/mol | reverse rate constant (k rev), y-axis intercept of reoxidation (PeAAO [8]; PeAAO): 55 s⁻¹ | second phase of reoxidation (k ox B→C) (PeAAO [8]; PeAAO reoxidized with 50 µM of BQ): 5 to 10 s⁻¹ | second phase of reoxidation (k ox B→C) (PeAAO [8]; PeAAO reoxidized with 100 µM of BQ): 15 to 20 s⁻¹ | first phase share of the total amplitude of reoxidation (PeAAO [8]; PeAAO, 50 µM of BQ): more than 50% | first phase share of the total amplitude of reoxidation (PeAAO [8]; PeAAO, 100 µM of BQ): > 85% | enzyme in the oxidized state during turnover (BaAAO [9]): ~90%
